From US20240335542A1, “NANOMATERIALS COMPRISING DISULFIDES” (Beam Therapeutics Inc., priority 2021, published 2024)

Tests used:
[1] = LNP biodistribution in mice, barcode fold above input (FAI) in tissues; type: in vivo; details: pooled LNP IV tail vein, 4 hours post-dose, fold above input of barcode
Protocol: Male and female mice aged approximately 8-12 weeks were used for studies described by the present Example. Each mouse was temporarily restrained and pooled LNP was administered IV via tail vein injection in up to five animals per experiment. Age-matched mice was also used to administer vehicle (1×TBS) via tail vein injection in up to three animals per experiment. Additional routes of administration can also be conducted including intracerebral ventricular (ICV), intracisterna manga (ICM), intrathecal (IT), intramuscular (IM), nebulization, intranasal (IN), subcutaneous (SC), intraarticular, and intradermal (ID). At 4 hours post-dose, tissues including liver, spleen, bone marrow, testes, gastrocnemius, quadricep, lung, heart, kidney, and pancreas may be collected for analysis.
RNA from tissues were extracted using the Reliaprep RNA extraction kit, and libraries were prepared using the RNAseq kit, and sequenced on either a MiSeq or NextSeg500.
To screen for preferential LNP delivery to a target tissues, the relative abundance of each barcode in one or more target tissues was measured and compared to the relative abundance of each barcode to its corresponding relative input abundance to determine fold above input (FAI) for each barcode. If the FAI of a barcode in a target tissue is above a threshold or above the FAI of a different LNP in the same tissue, the LNP can be identified as preferentially delivering to the target tissue.
The FAI is the normalized relative abundance of a barcode in a selected sample as compared to its frequency in the input. The FAI of a barcode indicates how a LNP's abundance changes relative to the rest of the LNP pool. The FAI value of the barcode was calculated by normalizing the relative abundance in the barcode sequence counts in the isolated samples to its relative abundance in the administration input. […] The FAI then indicates the performance of an LNP relative to the input LNP composition.

[2] = LNP hydrodynamic diameter and polydispersity index by dynamic light scattering (DLS); type: physicochemical; details: LNP of 47.5% ionizable lipid: 40% cholesterol: 2.5% PEG-2000 DMG: 10% DPSC, N/P 4-8
Protocol: (§1) LNPs were prepared with 47.5% Ionizable Lipid (e.g., a compound provided herein): 40% cholesterol: 2.5% PEG-2000 DMG; and 10% DPSC and an N/P ratio range of 4-8. LNPs were formed by microfluidic mixing of the lipid and NA solutions using a Precision Nanosystems NanoAssemblr Spark or Benchtop series Instruments, according to the manufacturers protocol. A ratio of aqueous to organic solvent of approximately 2:1 or 3:1 was maintained during mixing using differential flow rates. After mixing, LNPs were collected, diluted in phosphate buffer saline (PBS) or Tris-buffered saline (TBS) (approximately 1:1 v/v). Further buffer exchange was conducted using dialysis in PBS or TBS at 4° C. for 4 to 24 hours against a 20 kDa filter. After this initial dialysis, each individual LNP preparation was characterized via dynamic light scattering (DLS) to measure the size (e.g., diameter) and polydispersity. LNPs falling within specific diameter and polydispersity ranges were pooled, and further dialyzed against PBS or TBS at 4° C. for 1 to 4 hours against a 100 kDa dialysis cassette. After the second dialysis, LNPs were sterile filtered using 0.22 μm filter and stored at 4° C. for further use.
LNP hydrodynamic diameter and polydispersity index (PDI) were measured using high throughput dynamic light scattering (DLS) (Stunner, Unchained Labs). LNPs were diluted 1×TBS or PBS to an appropriate concentration and analyzed.

[3] = RNA encapsulation efficiency of LNPs by Ribogreen assay; type: physicochemical; details: LNP of 47.5% ionizable lipid: 40% cholesterol: 2.5% PEG-2000 DMG: 10% DPSC, N/P 4-8
Protocol: as §1
RNA concentration and encapsulation efficiency were determined by Ribogreen assay (BioTek Synergy LX plate reader).

[4] = test system: ALAS1 target site; test: In vivo base editing with LNP carrying adenine base editor mRNA and sgRNA, targeted deep sequencing; details: LNP with ABE mRNA + sgRNA, 0.15 mg/kg total RNA, tail vein, Balb/C mice, four to six days post-dose
Protocol: Exemplary LNP preparations were selected to determine each preparation's ability to perform base editing in a Balb/C mouse model as described herein.
Lipid nanoparticle components were dissolved in 100% ethanol at specified lipid component molar ratios. mRNA encoding an adenine base editor and a chemically-modified sgRNA was dissolved at a mass ratio of 1:1 in 50 mM citrate, pH 4.0, resulting in a concentration of NA cargo of approximately 0.1 mg/mL.
LNP preparations were formulated with molar ratios of 47.5% Ionizable Lipid: 40% Cholesterol: 2.5% PEG2000-DMG: 10% DSPC total lipid to NA mass ratio of 6 to 12. […]
A 3:1 ratio of aqueous to organic solvent was maintained during mixing using differential flow rates. […] After this initial dialysis, each individual LNP preparation was characterized via dynamic light scattering (DLS) to measure size and polydispersity. pKa of a subpopulation of LNP preparations was measured via TNS assay. […]
Age-matched mice were also used to administer vehicle (1×TBS) via tail vein injection as a control. […] Base editing was determined by performing targeted deep sequencing analysis at the ALAS1 target site using extracted genomic DNA. […] Library size and concentration was confirmed by Fragment Analyzer (Agilent) and analyzed for whole genome sequencing using an Illumina HiSeq.

FAI (Liver) ([1]; liver)	FAI (Lung) ([1]; lung)	FAI (Spleen) ([1]; spleen)	Mean Diameter (nm) [2] [nm]	Mean PDI [2]	Mean Encapsulation Efficiency (%) [3] [%]	SMILES	base editing observed in liver [4] [%]
0.50	1.02	1.46	–	–	–	CCCCC/C=C\C/C=C\CCCCCCCCC(CCCCCCCC/C=C\C/C=C\CCCCC)OC(=O)CCCN(C)C [MC3, (6Z,9Z,28Z,31Z)-heptatriaconta-6,9,28,31-tetraen-19-yl 4-(dimethylamino) butanoate]	–
–	–	–	72.1	0.09	88.2	CC/C=C\CCCCOC(CCC(=O)Oc1ccc(CC(=O)OCCC2CCN(CCSSCCN3CCC(CCOC(=O)Cc4ccc(OC(=O)CCC(OCCCC/C=C\CC)OCCCC/C=C\CC)cc4)CC3)CC2)cc1)OCCCC/C=C\CC [7-9, (((((disulfanediylbis(ethane-2,1-diyl))bis(piperidine-1,4-diyl))bis(ethane-2,1-diyl))bis(oxy))bis(2-oxoethane-2,1-diyl))bis(4,1-phenylene) bis(4,4-bis(((Z)-oct-5-en-1-yl)oxy)butanoate)]	–
–	–	–	74.9	0.08	87.7	CC/C=C\CCCCOC(CCCC(=O)Oc1ccc(CC(=O)OCCC2CCN(CCSSCCN3CCC(CCOC(=O)Cc4ccc(OC(=O)CCCC(OCCCC/C=C\CC)OCCCC/C=C\CC)cc4)CC3)CC2)cc1)OCCCC/C=C\CC [7-8, (((((disulfanediylbis(ethane-2,1-diyl))bis(piperidine-1,4-diyl))bis(ethane-2,1-diyl))bis(oxy))bis(2-oxoethane-2,1-diyl))bis(4,1-phenylene) bis(5,5-bis(((Z)-oct-5-en-1-yl)oxy)pentanoate)]	13.7
